Results as given in EP4763839A1 (Pamplona Therapeutics (Shenzhen) Co., Ltd., priority 2023, dated 2025).

The compounds below were run against T1, IRAK4 (Homo sapiens, UniProt Q9NWZ3) (assay: Assay for inhibitory effect of compound on IRAK4 kinase activity (KinEASE-STK S1 HTRF kit)). Details: not given.
T1 sequence (Q9NWZ3 1-460): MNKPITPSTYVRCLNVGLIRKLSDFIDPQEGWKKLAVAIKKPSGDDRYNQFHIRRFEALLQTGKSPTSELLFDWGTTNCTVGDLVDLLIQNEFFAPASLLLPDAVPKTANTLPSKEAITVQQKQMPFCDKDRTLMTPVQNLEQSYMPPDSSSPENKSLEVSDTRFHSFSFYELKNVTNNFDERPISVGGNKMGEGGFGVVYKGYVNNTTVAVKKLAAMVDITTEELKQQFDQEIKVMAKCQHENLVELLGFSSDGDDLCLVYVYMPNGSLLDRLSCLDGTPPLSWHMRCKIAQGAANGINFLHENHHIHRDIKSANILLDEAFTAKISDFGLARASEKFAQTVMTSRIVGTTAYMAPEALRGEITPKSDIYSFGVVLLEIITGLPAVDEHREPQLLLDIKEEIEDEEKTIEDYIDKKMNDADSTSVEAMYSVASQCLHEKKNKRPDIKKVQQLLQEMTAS
Type: biochemical
Method: Example 1: Kinase activity assay
Assay for inhibitory effect of compound on IRAK4 kinase activity
The inhibitory effect of the compound on IRAK4 kinase activity was measured using the KinEASE-STK S1 serine/threonine kinase kit (Cisbio). The specific method was as follows: the compound was dissolved in dimethyl sulfoxide and then subjected to 3-fold serial dilution in dimethyl sulfoxide, yielding final test compound concentrations in the reaction system ranging from 5,000 nM to 0.0254 nM. The kinase at a final concentration of 8 nM was added, followed by incubation at rt for 15 minutes. Subsequently, biotinylated STK1 substrate at a final concentration of 400 nM and adenosine triphosphate (ATP) at a final concentration of 80 µM were sequentially added, and the mixture was incubated at 37°C for 90 minutes. Then, the reaction was terminated by adding an anti-phosphoserine/threonine antibody conjugated with a europium cryptate and streptavidin-conjugated XL665 to the reaction system. After incubation at rt for 1 hour, the fluorescence intensity at emission wavelengths of 620 nm and 665 nm for each well was measured using an EnVision microplate reader (PerkinElmer) in HTRF mode. The ratio value was calculated using the formula: Ratio = (665 nm/620 nm)×10^4 The inhibition rate of the compound at each concentration was calculated using the formula: Inhibition% = [1-(Signal sample-Signal min)/(Signal max-Signal min)]×100. Subsequently, the dose-response curve was fitted by nonlinear curve fitting of log concentration versus inhibition rate using Fit Modela (205) in XLfit to give the IC50 value of the compound for inhibition of protein activity.

SMILES	IC50
NC(=O)c1nn(-c2ccc(C(=O)O)nc2)cc1NC(=O)c1cccc(C(F)(F)F)n1 [Compound A31]	100 to 1000 nM
COc1nn(-c2ccc(N3CCNCC3)cc2)cc1NC(=O)c1cccc(C(F)(F)F)n1 [Compound A39]	100 to 1000 nM
CS(=N)(=O)c1cn(-c2ccccc2)nc1NC(=O)c1cccc(C(F)(F)F)n1 (stereo not shown) [Compound A60]	> 1000 nM

Same assay, conditions: kinase 8 nM, ATP 80 µM, 37°C 90 minutes; read-out: IRAK4 HTRF IC50

IC50	SMILES
< 100 nM	NCc1ccc(-n2cc(NC(=O)c3cccc(C(F)(F)F)n3)c(C(N)=O)n2)cc1 [Compound A20]
< 100 nM	CNCc1ccc(-n2cc(NC(=O)c3cccc(C(F)(F)F)n3)c(C(N)=O)n2)cc1 [Compound A21]
< 100 nM	CN(C)Cc1ccc(-n2cc(NC(=O)c3cccc(C(F)(F)F)n3)c(C(N)=O)n2)cc1 [Compound A22]
< 100 nM	CC(=O)NCc1ccc(-n2cc(NC(=O)c3cccc(C(F)(F)F)n3)c(C(N)=O)n2)cc1 [Compound A23]
< 100 nM	CC(=O)N(C)Cc1ccc(-n2cc(NC(=O)c3cccc(C(F)(F)F)n3)c(C(N)=O)n2)cc1 [Compound A24]
< 100 nM	NC(=O)c1nn(-c2ccc(N3CCNCC3)cc2)cc1NC(=O)c1cccc(C(F)(F)F)n1 [Compound A25]
< 100 nM	CN1CCN(c2ccc(-n3cc(NC(=O)c4cccc(C(F)(F)F)n4)c(C(N)=O)n3)cc2)CC1 [Compound A26]
< 100 nM	CC(=O)N1CCN(c2ccc(-n3cc(NC(=O)c4cccc(C(F)(F)F)n4)c(C(N)=O)n3)cc2)CC1 [Compound A27]
< 100 nM	NC(=O)c1nn(-c2ccc(N3CCN(C(=O)c4ccccc4)CC3)cc2)cc1NC(=O)c1cccc(C(F)(F)F)n1 [Compound A28]
100 to 1000 nM	NC(=O)c1nn(-c2cccnc2)cc1NC(=O)c1cccc(C(F)(F)F)n1 [Compound A29]
< 100 nM	NC(=O)c1nn(C2CC(N)C2)cc1NC(=O)c1cccc(C(F)(F)F)n1 (stereo not shown) [Compound A32]
100 to 1000 nM	NC(=O)c1nn(C2CNC2)cc1NC(=O)c1cccc(C(F)(F)F)n1 [Compound A33]
100 to 1000 nM	NC(=O)c1nn(C2COC3(CCNCC3)C2)cc1NC(=O)c1cccc(C(F)(F)F)n1 (stereo not shown) [Compound A35]
100 to 1000 nM	NC(=O)c1nn(C2CCC(N)CC2)cc1NC(=O)c1cccc(C(F)(F)F)n1 (stereo not shown) [Compound A36]
< 100 nM	O=C(Nc1cn(-c2ccc(N3CCNCC3)cc2)nc1C(F)F)c1cccc(C(F)(F)F)n1 [Compound A42]
> 1000 nM	CNC1CC(c2nn(-c3ccccc3)cc2NC(=O)c2cccc(C(F)(F)F)n2)C1 (stereo not shown) [Compound A44, N-(3-(3-(Methylamino)cyclobutyl)-1-phenyl-1H-pyrazol-4-yl)-6-(trifluoromethyl)picolinamide]
100 to 1000 nM	NC(=O)c1nn(-c2cncnc2)cc1NC(=O)c1cccc(C(F)(F)F)n1 [Compound A45]
100 to 1000 nM	CC(C)(O)c1nn(-c2ccccc2)cc1NC(=O)c1cccc(C(F)(F)F)n1 [Compound A46, N-(3-(2-hydroxypropan-2-yl)-1-phenyl-1H-pyrazol-4-yl)-6-(trifluoromethyl)picolinamide]
< 100 nM	NC(=O)c1cn(-c2ccccc2)cc1NC(=O)c1cccc(C(F)(F)F)n1 [Compound A47]
< 100 nM	NC(=O)c1[nH]c(-c2ccccc2)cc1NC(=O)c1cccc(C(F)(F)F)n1 [Compound A48]
> 1000 nM	NC(=O)c1sc(-c2ccccc2)cc1NC(=O)c1cccc(C(F)(F)F)n1 [Compound A50]
> 1000 nM	NC(=O)c1cc(-c2ccccc2)sc1NC(=O)c1cccc(C(F)(F)F)n1 [Compound A51]
> 1000 nM	NC(=O)c1cc(-c2ccccc2)oc1NC(=O)c1cccc(C(F)(F)F)n1 [Compound A53]

IC50	SMILES
> 1000 nM	NC(=O)c1nc(-c2ccccc2)[nH]c1NC(=O)c1cccc(C(F)(F)F)n1 [Compound A54]
> 1000 nM	NC(=O)c1sc(-c2ccccc2)nc1NC(=O)c1cccc(C(F)(F)F)n1 [Compound A55, 2-Phenyl-4-(6-(trifluoromethyl)picolinamido)thiazole-5-carboxamide]
> 1000 nM	NC(=O)c1nc(-c2ccccc2)sc1NC(=O)c1cccc(C(F)(F)F)n1 [Compound A56, 2-Phenyl-5-(6-(trifluoromethyl)picolinamido)thiazole-4-carboxamide]
> 1000 nM	NC(=O)c1oc(-c2ccccc2)nc1NC(=O)c1cccc(C(F)(F)F)n1 [Compound A57, 2-Phenyl-4-(6-(trifluoromethyl)picolinamido)oxazole-5-carboxamide]
> 1000 nM	NC(=O)c1nc(-c2ccccc2)oc1NC(=O)c1cccc(C(F)(F)F)n1 [Compound A58, 2-Phenyl-5-(6-(trifluoromethyl)picolinamido)oxazole-4-carboxamide]
> 1000 nM	NS(=O)(=O)c1cn(-c2ccccc2)nc1NC(=O)c1cccc(C(F)(F)F)n1 [Compound A59, N-(1-phenyl-4-sulfamoyl-1H-pyrazol-3-yl)-6-(trifluoromethyl)picolinamide]
> 1000 nM	CC(C)(O)c1cn(-c2ccccc2)nc1NC(=O)c1cccc(C(F)(F)F)n1 [Compound A61, N-(4-(2-hydroxypropan-2-yl)-1-phenyl-1H-pyrazol-3-yl)-6-(trifluoromethyl)picolinamide]
100 to 1000 nM	NS(=O)(=O)c1nn(-c2ccccc2)cc1NC(=O)c1cccc(C(F)(F)F)n1 [Compound A62, N-(1-phenyl-3-sulfamoyl-1H-pyrazol-4-yl)-6-(trifluoromethyl)picolinamide]
> 1000 nM	N#Cc1nn(-c2ccccc2)cc1NC(=O)c1cccc(C(F)(F)F)n1 [Compound A64, N-(3-cyano-1-phenyl-1H-pyrazol-4-yl)-6-(trifluoromethyl)picolinamide]
> 1000 nM	O=C(Nc1cn(-c2ccccc2)nc1C1CC(O)C1)c1cccc(C(F)(F)F)n1 (stereo not shown) [Compound A65, N-(3-(3-hydroxycyclobutyl)-1-phenyl-1H-pyrazol-4-yl)-6-(trifluoromethyl)picolinamide]
> 1000 nM	O=C(Nc1cn(-c2ccccc2)nc1C1CC1)c1cccc(C(F)(F)F)n1 [Compound A71, N-(3-cyclopropyl-1-phenyl-1H-pyrazol-4-yl)-6-(trifluoromethyl)picolinamide]
> 1000 nM	O=C(Nc1cn(-c2ccccc2)nc1C1CCC1)c1cccc(C(F)(F)F)n1 [Compound A72, N-(3-cyclobutyl-1-phenyl-1H-pyrazol-4-yl)-6-(trifluoromethyl)picolinamide]
100 to 1000 nM	O=C(Nc1cn(-c2ccccc2)nc1CO)c1cccc(C(F)(F)F)n1 [Compound A74, N-(3-(hydroxymethyl)-1-phenyl-1H-pyrazol-4-yl)-6-(trifluoromethyl)picolinamide]
100 to 1000 nM	CC(O)c1nn(-c2ccccc2)cc1NC(=O)c1cccc(C(F)(F)F)n1 (stereo not shown) [Compound A75, N-(3-(1-hydroxyethyl)-1-phenyl-1H-pyrazol-4-yl)-6-(trifluoromethyl)picolinamide]
100 to 1000 nM	O=C(Nc1cn(-c2ccccc2)nc1C(=O)NC1CC1)c1cccc(C(F)(F)F)n1 [Compound A86, N-(3-(cyclopropylcarbamoyl)-1-phenyl-1H-pyrazol-4-yl)-6-(trifluoromethyl)picolinamide]
< 100 nM	NC(=O)c1nn(-c2ccccc2)cc1NC(=O)c1cccc(-c2cc[nH]n2)n1 [Compound A88]
< 100 nM	NC(=O)c1nn(-c2ccccc2)cc1NC(=O)c1cccc(-c2cn[nH]c2)n1 [Compound A89]
< 100 nM	NC(=O)c1nn(-c2ccccc2)cc1NC(=O)c1cccc(-c2c[nH]cn2)n1 [Compound A90]
100 to 1000 nM	NC(=O)c1nn(-c2ccccc2)cc1NC(=O)c1cccc(-c2cc[nH]c2)n1 [Compound A91]
< 100 nM	NS(=O)(=O)c1nn(-c2ccccc2)cc1NC(=O)c1cccc(-c2cc[nH]n2)n1 [Compound A92, N-(1-phenyl-3-sulfamoyl-1H-pyrazol-4-yl)-6-(1H-pyrazol-3-yl)picolinamide]
< 100 nM	NS(=O)(=O)c1nn(-c2ccccc2)cc1NC(=O)c1cccc(-c2cn[nH]c2)n1 [Compound A93]
< 100 nM	NS(=O)(=O)c1nn(-c2ccccc2)cc1NC(=O)c1cccc(-c2c[nH]cn2)n1 [Compound A94, 6-(1H-imidazol-4-yl)-N-(1-phenyl-3-sulfamoyl-1H-pyrazol-4-yl)picolinamide]
< 100 nM	NS(=O)(=O)c1nn(-c2ccccc2)cc1NC(=O)c1cccc(-c2cc[nH]c2)n1 [Compound A95, N-(1-phenyl-3-sulfamoyl-1H-pyrazol-4-yl)-6-(1H-pyrrol-3-yl)picolinamide]
